Experimental data from patent US10864273B2, “Thiobase compounds for photodynamic therapy” (CASE WESTERN RESERVE UNIVERSITY, priority 2015, dated 2020).
Like-named read-outs stand apart in the source and are kept apart here.

Columns and labels:
[1] = pH 7.4 phosphate buffer solution, cited from earlier work; for ΦT triplet quantum yield: previously reported values
[2] = Femtosecond broadband transient absorption spectroscopy of the thiothymine series (intersystem crossing, triplet yield); assay type: physicochemical
Description: Femtosecond transient absorption spectroscopy was performed using a Ti— Sapphire regenerative amplifier laser system (Libra-HE, Coherent, Inc.; 800 nm, 100 fs, 4.0 W at 1 kHz). 2.6 W of the 800 nm beam were used to pump an optical parametric amplifier (TOPAS, Quantronix/Light Conversion) to generate the excitation beam at selected wavelengths of 320, 335, and 360 nm. Contributions to the excitation beam from other wavelengths and polarizations were removed by a reflective wavelength filter (λ-filter) and a Glan-Taylor polarizer, respectively, and the polarization was randomized using a depolarizing plate in order to prevent rotational effects from contributing to the dynamics, as described in details elsewhere.
A Helios spectrometer (Ultrafast Systems, LLC.) was used for pump-probe measurements. A fraction of the fundamental (800 nm) beam from the Libra-HE was used to generate white light continuum (WLC). The Helios spectrometer uses an optical delay line with a maximum delay of ˜3 ns for the 800 nm beam, which was used to pump a continuously-moving 2 mm CaF2 plate for generation of the WLC broadband probe pulse covering the spectral range from ˜320-700 nm. The probe light was then passed through a 730 nm low-pass dichroic optical filter, so as to block residual fundamental beam and to avoid saturating the complementary metal-oxide-semiconductor (CMOS) detectors. The probe pulse was then split into two beams, both of which were recollimated and focused into the optical fibers leading to their respective CMOS detectors. In this setup, one of the beams serves as reference, while the other is used to probe the sample of interest. A synchronized chopper wheel was used to block every other pump pulse, such that the difference in absorption between two consecutive measurements gives the transient spectrum. The excitation beam was attenuated to 1 μJ/pulse at the sample using a neutral density optical filter before entering the spectrometer. The excitation pulse was focused to a beam diameter three times larger than that of the probe beam at the sample position. Detection time windows of 20 and 200 ps were used in this work.
All solutions were prepared using pH 7.4 aqueous phosphate buffer, with a total phosphate concentration of 16 mM. The solution was continuously stirred in a 2 mm optical path length quartz cell (Starna Cells, Inc.) using a Teflon-coated magnetic stirring bar so as to bring fresh sample to the pump-probe region for each measurement. The solution in the cuvette was replaced with a fresh sample, from the same stock solution, every 5-7 scans, so that all scans had no more than 5% decrease in absorbance at the lowest-energy absorption-band maximum as determined by steady-state absorption spectroscopy.
All broadband transient absorption data were corrected for group velocity dispersion (GVD) of the WLC using a home-made LabView program (National Instruments, Inc.) as previously described. 3 Analysis of transient absorption kinetics was performed in Igor Pro 6.32A (WaveMetrics, Inc.) using the target analysis method, as described previously, and a sequential kinetic model convoluted with an instrument response function of ˜200 fs (FWHM). The instrument response was determined from the coherence signal of neat methanol generated at the sample cell. Global fitting analysis was performed using 15 to 30 representative kinetic traces covering the full range of probe wavelengths. At least three independent datasets (i.e., recorded on three different days) were used in the analysis and all uncertainties are reported as twice the standard deviation of the average lifetime. Decay associated spectra shown in FIG. 7A were extracted from the global fitting analysis of the transient decay traces taken every third probe wavelength across the entire WLC range.

[3] = test system: adenosine 5′-monophosphate (5′-AMP); test: Photoreactivity with adenosine 5′-monophosphate upon 365 nm irradiation in N2-saturated buffer; details: with 5′-AMP, 1:5 molar ratio (24 and 120 mM); 365 nm irradiation; N2-saturated aqueous buffer pH 7.4
Description: Aqueous phosphate-buffered saline solutions, pH 7.4, containing either 4tUra or 2,4dtUra were prepared with and without 5′-AMP and loaded into 1×1 cm septum-top quartz cuvettes. The concentrations of the thiouracil derivatives and 5′-AMP were […], respectively. These concentrations were chosen in order to favor the bimolecular photoreaction between the thiouracil derivative and 50-AMP, while simultaneously maintaining the absorbance of the solutions within the linear dynamic range limit of the UV-visible spectrophotometer used. All solutions were purged with ultrapure nitrogen for 30 min and kept under constant nitrogen flow throughout the irradiation period. An optical parametric amplifier (TOPAS, Quantronix/Light Conversion) pumped by our Libra laser system (described above) was used for monochromatic (±1 nm) irradiation of the samples. […] Absorbance changes in the thiouracil solutions, with and without 5′-AMP, were monitored periodically using UV-visible spectroscopy (Cary 100 Bio) during irradiation at 365 nm for up to 90 min and while stored in the dark for up to three and a half days.
In order to scrutinize the light-induced reactivity of these sensitizers toward biomolecules, aqueous phosphate-buffered saline solutions of either 4tUra or 2,4dtUra were prepared in the presence of the RNA monomer adenosine 5′-monophosphate (5′-AMP) at a 1:5 molar ratio. […] The experimental conditions were chosen in order to facilitate the extraction of relative photoreaction rates from the changes in the steady-state absorption spectra with irradiation time. […]

[4] = Femtosecond to microsecond transient absorption spectroscopy of the thiouracil series (intersystem crossing, triplet yield, triplet decay, triplet-triplet extinction)
Description: Briefly, 800 nm, 100 fs fundamental pulses were generated with a Ti-Sapphire regenerative amplifier laser system (Libra-HE, Coherent, Inc.: 4.0 W, 1 kHz). The fundamental beam was used to produce pump wavelengths of 320, 335, and 350 nm via an optical parametric amplifier (TOPAS, Quantronix/Light Conversion). Unwanted wavelengths were removed from the pump beam using a reflective wavelength filter and a Glan-Taylor polarizer. A fraction of the remaining fundamental beam was focused into a continuously moving CaF2 plate (2 mm thick) to generate broadband white light probe pulses (320-700 nm). The intensity of the excitation beam was attenuated to 1 mJ per pulse at the sample position. The polarization of the pump beam was randomized before being focused into the sample to overlap with the white light continuum probe at a 3:1 beam diameter ratio. Pump-probe experiments were collected using a Helios spectrometer (Ultrafast Systems, LLC) and a home-made data acquisition software (LabView, National Instruments, Inc.).
Solutions of the 2tUra, 4tUra, and 2,4dtUra derivatives were prepared in aqueous phosphate-buffered saline at pH 7.4. […] Solutions were investigated in 2 mm optical path length quartz cells and the irradiated volume was continuously refreshed by stirring with a Teflon-coated magnetic stir bar. Contributions to the transient data from any putative photoproduct formation were prevented by replacing the solution with fresh stock solution every 5 scans, or before 6% sample degradation (as monitored by a decrease in the steady-state absorbance of the lowest-energy absorption band). The UVA excitation wavelength used was varied depending on the absorption spectrum of the specific thiouracil derivative investigated. For 2tUra, an excitation wavelength of 320 nm was used, whereas 2,4dtUra was excited at 335 and 350 nm, and 4tUra was excited at all three of these UVA wavelengths.
Decay of the triplet state of 4tUra and 2,4dtUra to the ground state was monitored using the same excitation and detection setups but probing with an electronically triggered broadband white light source (Eos, Ultrafast Systems, LLC) that has been conveniently integrated into the Helios spectrometer. This probe source has a spectral window from B375 to 800 nm, a time resolution of about 400 ps, and a temporal window of up to 120 ms. […] Data were collected with the solutions under a constant nitrogen flow, and exciting at 350 nm with 3 mJ per pulse for 10 min, corresponding to less than 5% degradation.
For each data set, between 50 and 100 traces were selected across the entire range of probe wavelengths and globally analyzed in Igor Pro 6.32A (WaveMetrics, Inc.). […] 83 The uncertainties reported for the triplet population lifetimes are twice the standard deviation from the average fitting of at least three independent datasets (i.e., recorded on three different days). Triplet-triplet absorption spectra were extracted from the global fitting analysis.

[5] = cited from earlier work
[6] = Singlet oxygen quantum yield by phosphorescence at 1270 nm, thiouracil series; assay type: physicochemical
Description: Solutions of 4tUra, 2,4dtUra, and the singlet oxygen standard (phenalenone; ΦΔ=0.98) were prepared in acetonitrile, each with an absorbance of 0.3 at 355 nm in a 1×1 cm quartz cuvette. The solutions were purged with oxygen for 30 min, followed by the determination of quantum yields from back-toback measurements of the singlet oxygen phosphorescence intensity at 1270 nm. The O2-saturated solutions were excited at 355 nm (Spectra Physics GCR-150-30: 7 ns pulse width) and the phosphorescence at 1270 nm was detected with a NIR sensitive photomultiplier tube (H10330A-45, Hamamatsu).
The singlet oxygen (^1O2) quantum yields of 4tUra and 2,4dtUra were measured by monitoring the characteristic phosphorescence of ^1O2 at 1270 nm with nanosecond time resolution.

[7] = O2-saturated acetonitrile solution; previously measured / standard value; cited from earlier work
[8] = Steady-state absorption spectroscopy, thymine series; assay type: physicochemical; details: phosphate buffer solution at pH 7.4
Text: 2-thiothymine (2tThy, 98% purity) was obtained from AK Scientific, 4-thiothymidine (4tThd, 99% purity) was obtained from Carbosynth Ltd., and 2-thiothymidine (2tThd) and 2,4-dithiothymine (2,4dtThy) were obtained from Sigma Aldrich. All compounds were used as received. The purity of these compounds was ensured by using fluorescence spectroscopy and by comparison with the published absorption maxima and their corresponding extinction coefficients. Phosphate buffer solutions were freshly prepared using 0.12 g of sodium dihydrogen phosphate and 0.089 g of disodium hydrogen phosphate dissolved in 100 mL of ultrapure water and adjusted to pH 7.4 using a 2 M NaOH solution. Steady-state absorption spectra were measured using a Cary 100 Bio spectrometer. All absorption spectra were corrected for the solvent background by subtraction of the absorption of the solvent.
Specifically, sulfur substitution of the C2 carbonyl in thymine results in about a 10 nm redshift in the absorption maximum, whereas substitution at the C4 position results in a redshift of about 70 nm. Remarkably, double-substitution results in about a 100 nm redshift of the lowest-energy absorption band of thymidine (ΔE=9905 cm^−1), without an appreciable change in the magnitude of the extinction coefficient at the corresponding wavelengths (1×10^4 M^−1 cm^−1). Replacement of an oxygen atom by a sulfur atom in a carbonyl bond is expected to shift the absorption spectrum to the red because the thiocarbonyl is weaker than the carbonyl bond and the excited electronic states in thiocarbonyl compounds are typically found at lower energies. However, the difference in bond strengths between a carbonyl and thiocarbonyl bond cannot solely explain the large spectral shift observed between 2tThy/2tThd and 4tThd. Furthermore, the redshift in the absorption spectrum of 2,4dtThy cannot simply be expressed as a linear combination of the absorption spectra of the 2tThy/2tThd and 4tThd derivatives. […] Glycosylation of 2tThy, generating 2tThd, results in a 2 nm redshift in the absorption maximum and about 2-fold increase in the molar absorptivity coefficients (FIG. 1B). The same effect has been previously documented in the natural bases and in other thiobases. Therefore, glycosylation of 2,4dtThy to form 2,4-dithiothymidine is expected to redshift the absorption spectrum slightly and to increase the molar absorptivity coefficients.

[9] = aqueous phosphate-buffered saline solution, pH 7.4

Cc1cn([C@H]2C[C@H](O)[C@@H](CO)O2)c(=S)[nH]c1=O [2tThd, 2-thiothymidine]
ΦT triplet quantum yield [1]: 0.9 ± 0.1
τISC intersystem crossing lifetime ([2]; pH 7.4 phosphate buffer solution, probe 600 nm): 410 ± 60 fs

O=c1[nH]ccc(=S)[nH]1 [4tUra, 4-thiouracil]
photoreaction rate [3]: (0.39±0.04)×10^−9 M s^−1
τISC intersystem crossing lifetime [4, 9]: 240 ± 20 fs
κT triplet-state decay rate ([4]; aqueous phosphate-buffered saline solution, pH 7.4, 24 mM solutions, nitrogen-purged, 350 nm excitation): 1.7 ± 0.3 10^6 s^−1
triplet-triplet extinction coefficient ([4]; at 600 nm, singlet depletion method): 3000 ± 600 M⁻¹ cm⁻¹
pKa [5]: 8.0
ΦΔ singlet oxygen quantum yield ([6]; O2-saturated acetonitrile, 355 nm excitation, phenalenone standard): 0.49±0.02
1O2 yield relative to uracil ([6]; excited to lowest-energy absorption band): 3.3 fold
1O2 yield ([6]; following UVA excitation): ca. 50%

Cc1c[nH]c(=S)[nH]c1=O [2tThy, 2-thiothymine]
ΦT triplet quantum yield [1]: 0.9 ± 0.1
ΦΔ singlet oxygen quantum yield [7]: 0.36 ± 0.02
intersystem crossing rate increase relative to Thd [2]: 1.2 fold

O=c1cc[nH]c(=S)[nH]1 [2tUra, 2-thiouracil]
τISC intersystem crossing lifetime [4, 9]: 360 ± 30 fs
pKa [5]: 7.74

Cc1cn([C@H]2C[C@H](O)[C@@H](CO)O2)c(=O)[nH]c1=O [Thd, thymidine]
ΦT triplet quantum yield [1]: 0.014 ± 0.001
τISC intersystem crossing lifetime ([1]; recently reported value for thymidine): 760 fs
ΦΔ singlet oxygen quantum yield [7]: 0.07 ± 0.01
maximum of lowest-energy absorption band [8]: ~267 nm
ε at maximum of lowest-energy absorption band [8]: ≈ 9.9×10^3 M^−1 cm^−1
